Laboratory results from US20030008897A1, “Method of controlling weight gain associated with therapeutic drugs” (priority 2000, published 2003).

Key:
[1] = target: [3H]Noradenaline reuptake (Rattus norvegicus, UniProt Q9WTR4); assay: in vitro [3H]noradrenaline reuptake inhibition in rat brain tissue; format: biochemical; settings: means of ≧3 separate determinations
[2] = test system: female Sprague-Dawley rats; assay: clozapine-induced hyperphagia (food intake) in rats; format: in vivo, rat; settings: for Mean food intake ± SEM: 3 mg/kg orally, food intake over 2 h, n=10, vehicle 6.5 ± 0.9
Protocol: Experiments were performed in individually-housed female Sprague-Dawley rats with free access to food (powdered rat chow containing 20% lard) and tap water at all times. On the day of the experiment, animals (n=10) were dosed orally with vehicle; the neuroleptic clozapine 3 mg/kg; sibutramine 3 mg/kg or sibutramine plus clozapine 3 mg/kg; and their food intake was monitored over 2 h.

SMILES | Ki [1] [nM] | Mean food intake ± SEM [2] [g/kg] | effect on food intake compared to vehicle-treated control group ([2]; 3 mg/kg po, over 2 h)
CC(NC(C)(C)C)C(=O)c1cccc(Cl)c1 (stereo not shown) [Bupropion] | 2590 |  | 
CN1CCN(C2=Nc3cc(Cl)ccc3Nc3ccccc32)CC1 [Clozapine] |  | 9.3 ± 0.7 | 
CC(C)CC(N(C)C)C1(c2ccc(Cl)cc2)CCC1 (stereo not shown) [Sibutramine, N,N-dimethyl-1-[1-(4-chlorophenyl)cyclobutyl]-3-methylbutylamine] |  | 1.7 ± 0.6 | significantly decreased food intake
